Source: article PMC10974732 (2024)
Values after ≈ are worked out from the molar mass of the structure shown.

Test system: 2B.N2A9 (DNA, aptamer) CATCTGCAGTGTGGCACCATGGGCATTGGGGGGCGAGGGTGGTTGGAGCGTTTGTGTGCGACGTGCTGAGCGTGAATTCGC
Experiment: indirect competitive ELOSA (SA-HRP/TMB)
Details: 37 °C, 1 h; 50 nM aptamer; competes with immobilised Neu5Gc-BSA (1 μg/mL coating)

Compound	IC50
O=C(CO)N[C@H]1[C@H]([C@H](O)[C@H](O)CO)OC(O)(C(=O)O)C[C@@H]1O (stereo partly shown)	9.35 ng/mL (≈ 0.0287 µM)
OC[C@H]1O[C@@](CO)(O[C@H]2O[C@H](CO)[C@@H](O)[C@H](O)[C@H]2O)[C@@H](O)[C@@H]1O	> 93,500.00 ng/mL
O=C(O)C1(O)C[C@H](O)[C@@H](O)[C@H]([C@H](O)[C@H](O)CO)O1 (stereo partly shown)	1659.58 ng/mL (≈ 6.19 µM)
OC[C@H]1OC(O)[C@H](O)[C@@H](O)[C@@H]1O (stereo partly shown)	> 93,500.00 ng/mL
CC(=O)N[C@@H]1C(O)O[C@H](CO)[C@@H](O)[C@@H]1O (stereo partly shown)	36,307.8 ng/mL
CC(=O)N[C@H]1[C@H]([C@H](O)[C@H](O)CO)OC(O)(C(=O)O)C[C@@H]1O (stereo partly shown)	467.74 ng/mL (≈ 1.51 µM)
OC[C@H]1O[C@H](O[C@H]2[C@H](O)[C@@H](O)C(O)O[C@@H]2CO)[C@H](O)[C@@H](O)[C@@H]1O (stereo partly shown)	> 93,500.00 ng/mL
